Patent US11610666B2, “Systems and methods of managing treatment of a chronic condition by symptom tracking” (CORCEPT THERAPEUTICS, INC., priority 2014, dated 2023)

Conditions: human, in vivo
Source text: Treatment of endocrine disorders, such as Cushing's Syndrome, can be particularly difficult to manage due to less predictable patient response to administration of a synthetic steroid, such as mifepristone. Mifepristone is a synthetic steroid that binds progesterone and glucocorticoid receptors and has been employed to treat a number of conditions including meningioma, uterine fibroids, hyperadrenocorticism, metabolic, oncologic, opthamalogic, central nervous system disorders and certain psychiatric illnesses. Examples of such metabolic disorders include diabetes, obesity, antipsychotic induced weight gain, hypertension, and osteoporosis; examples of oncologic illness include various types of cancers, including ovarian cancer and prostate cancer; examples of central nervous system disorders include Alzheimer's Disease, neurodegenerative diseases, post traumatic stress disorder, and alcohol dependence; and examples of opthamalogical conditions include glaucoma and central serous retinopathy. […] For a particular dose of mifepristone, the plasma drug concentration can differ by as much as 800% from one patient to the next. The varied plasma drug concentration can result in some patients not receiving an efficacious dose of mifepristone. For these patients in particular, it is necessary to improve the pharmacokinetics of mifepristone upon administration. […]

CC#C[C@]1(O)CC[C@H]2[C@@H]3CCC4=CC(=O)CCC4=C3[C@@H](c3ccc(N(C)C)cc3)C[C@@]21C [mifepristone]
difference in plasma drug concentration from one patient to the next: ≤ 800%
